SMILES strings stand for the structures.

Experimental findings from patent US20050124631A1, “Inhibitors of polyq-aggregation” (priority 2001, published 2005) are described below.

As usually defined, the melting point is the temperature, or range, at which the solid turns liquid. In turn, `Cc1ccc(Cl)c2sc(N)nc12` [Example 2, 2-Amino-7-chloro-4-methylbenzothiazole] returned a melting point of 206 °C.
